Assay results published in patent publication US20060257481A1, “Sustained release formulation and dosing schedule of leukotriene synthesis inhibitor for human therapy” (deCODE Genetics ehf., priority 2005, published 2006).

Assays:
[1] = Clinical studies, safety and tolerability in CAD patients; assay type: in vivo, human
Method: Previous clinical studies administered the dosages of DG-031 either in a single dose (QD) or twice a day (BID)
A total daily dose of 750 mg, dosed at 250 mg TID, provides a preferable PK/PD relationship (inhibition of LTB4) and efficacy in terms of lowering other biomarkers of MI risk (i.e. MPO and CRP).

LDL cholesterol = assay: Study DG-031-201: LDL cholesterol; assay type: in vivo, human; conditions: highest dose; [4%,12%], p<0.001
Method: (§1) Patients who met the study eligebility criteria were enrolled and randomized into 3 different dose-level groups: (1) 64 patients on 250 mg/day therapy with DG-031 (250 mg q.d.), vs placebo; (2) 64 patients on 500 mg/day therapy with DG-031 (250 mg b.i.d.) vs placebo; and (3) 63 patients on 750 mg/day therapy with DG-031 (250 mg t.i.d.) vs placebo. […] All patients received 3 tablets per day. Treatment periods, 4 weeks in duration each, were separated by a 2-week washout period. The placebo tablets were identical in shape, color, form and taste to the active tablets except that they contained no active drug ingredients. Treatment with DG-031 or placebo was in addition to the subject's standard care, including all medications and treatment plan as prescribed by the subject's cardiologist prior to enrolment. A total of 191 subjects were enrolled, with 172 completing all 8 visits or 8 patients short of the target of 180 patients.
12% for MPO ([2%,21%], p=0.02) at the 750 mg/day dose of DG-031. […] Urine levels of LTE4 increased by 27% in response to the highest dose of DG-031 ([15%,40%], p<0.001). Significant correlation was observed between the change of LTB4 and MPO production (r=0.62 [0.51,0.70], p<0.001) within a period, also when considering only those taking drug where the range of these changes were larger. Correlation was also observed for these variables at baseline. […]

[2] = tested on: LTB4 produced by ionomycin-activated neutrophils ex vivo; assay: Study DG-031-201: LTB4 in whole blood ex vivo after ionomycin activation (ELISA); set-up: species or system human
Method: as §1
The primary objective was to determine whether the FLAP inhibitor has a statistically significant effect, compared to placebo, on one or more biomarkers of MI risk, including: (1) ionomycin-induced LTB4 and MPO release by neutrophils ex vivo; (2) MPO, CRP, N-tyrosine, Lp-PLA2 or amyloid A in serum, or (3) LTE4 in urine. The secondary objective was to determine whether the effect of DG-031 was dose-dependent. The tertiary objective was to assess other biomarkers (See Results). Evaluation of safety and tolerability of the drug was also a primary endpoint.
All data were analyzed according to a pre-established statistical analysis plan (SAP) and by intention-to-treat (ITT). Each arm of the study, as well as pooled sets (combining dose levels), was considered for the primary analysis. Each such set is an AB/BA cross-over design and in the primary analysis of efficacy, the levels of biomarkers of MI risk at the end of the treatment periods (visits 4 and 7) were used as primary response variables. The difference between DG-031 and placebo treatment was the primary outcome, assessed separately for each of the biomarkers. Treatment effect was tested using a two-sample t-test on the period differences for suitably transformed response variables, under an assumption of normality of the transformed data. We report treatment effect as one half of the observed mean differences in the two-sample t-test, with a 95% CI. No pre-tests for carry-over effect were performed as a part of the primary analysis. Tests for carry-over were done and are reported separately from results of primary analysis. All hypotheses were tested at a two-sided nominal significance level of 0.05 and p-values based on t-tests are reported. In addition, for the primary efficacy endpoints where the effects of the two highest doses on 10 primary variables were studied, a randomization test was performed which corrects for multiple testing and ensures that the key results are not affected by distributional concerns. In particular, 1 million permutations of the patients into the different study tracks were performed, generating a reference distribution for the maximum of the 10 t-statistics of the biomarkers under the null hypothesis of no drug effect. By comparing the observed t-statistic of each of the 10 biomarkers to this reference distribution, empirical p-values were computed. As was stated in the SAP prior to unblinding, it was considered likely that experimental manipulations would alter the effect of the drug on two of the primary markers; this was indeed the case and we are only reporting directly on 8 of the 10 primary markers but all 10 are included in the randomization test.
Biomarker measurements: The ELISA and mass spectrometry assays used are described in the following references: Profita et al., J Pharmacol Exp Ther. 300:868-75, 2002; Roberts et al., Clin Chem. 47:418-25, 2001; Dada et al., Expert Rev Mol Diagn. […]

MMP-9 = assay: Study DG-031-201: MMP 9; assay type: in vivo, human; conditions: difference visit 2 to visit 5; 500 and 750 mg/day vs placebo cohort
Method: as §1
All data were analyzed according to a pre-established statistical analysis plan (SAP) and by intention-to-treat (ITT). Each arm of the study, as well as pooled sets (combining dose levels), was considered for the primary analysis. […] The difference between DG-031 and placebo treatment was the primary outcome, assessed separately for each of the biomarkers. […]

Compound: O=C(O)[C@@H](c1ccc(OCc2ccc3ccccc3n2)cc1)C1CCCC1 [DG-031, (R)-(+)-alpha-cyclopentyl-4-(2-quinolinylmethoxy)-Benzeneacetic acid]
- Safety and tolerability ([1]; 250 mg QD, 375 mg QD, 250 mg BID, 375 mg BID and 250 mg TID): safe and well tolerated
- Safety and tolerability ([1]; total daily doses 375 mg and 750 mg, less than 8 days): safe and well tolerated
- Safety and tolerability ([1]; total daily doses 250, 500 and 750 mg, 128 days): safe and well tolerated
- Increase in LDL cholesterol (LDL cholesterol): 8%
- Reduction of capacity for LTB4 production ([2]; 250 mg BID dose group, p=0.1): 18%
- LTB4 production ([2]; 250 mg BID, Study 201, NS): −18%
- Reduction of capacity for LTB4 production ([2]; 250 mg QD dose group, p=0.22): 13%
- LTB4 production ([2]; 250 mg QD, Study 201, 64 subjects, NS): −13%
- Reduction of capacity for LTB4 production ([2]; 250 mg TID dose group, p=0.008): 34%
- LTB4 production ([2]; 250 mg TID, St. 201, p = 0.008): −34% (St. 201)
- Reduction of capacity for LTB4 production ([2]; 250 mg TID, at steady state Cmin, [0%,56%], p=0.02): 30%
- Reduction of capacity for LTB4 production ([2]; combined dose groups of 500 mg and 750 mg TDD, p=0.003): about 26%
- Carry-over effect, MMP 9 (MMP-9): −0.04
